Patent publication US4629737A, “Secondary amines and use in pharmaceutical compositions” (Beecham Group p.l.c., priority 1982, dated 1986)
Counter-ions that a name gives are not always drawn. Like-named read-outs stand apart in the source and are kept apart here.

Assays:
[1] = Effect on energy expenditure of mice; assay type: in vivo, Female CFLP mice; details: Mus musculus; for response vs control in vivo at 25.1 mg/kg: 25.1 mg/kg po
Method: Female CFLP mice, each weighing approximately 24 g were given food and water ad lib before and during the experiment. The compounds were dissolved in water by addition of one mole of hydrochloric acid per mole of compound and these solutions were administered orally to each of 12 mice. A further 12 mice were dosed orally with water. The mice were placed in boxes through which air was drawn and the oxygen content of the air leaving the boxes was measured. The energy expenditure of the mice was calculated for 21 hours after dosing from the volume of air leaving the boxes and its oxygen content, following the principles described by J. B. de V. Weir, J. Physiol. (London), 109, 1-9 (1949).

blood glucose = experiment: Hypoglycaemic activity: reduction in area under blood glucose curve after glucose load; assay type: in vivo, Female CFLP mice; details: Mus musculus, read-out: % Reduction in area under Blood Glucose Curve
Method: Female CFLP mice, weighing approximately 25 g, were fasted for 24 hours prior to the study. The compounds under study were administered orally as an aqueous solution to each of 6 mice. 30 minutes later a blood sample (10 μl) was obtained from the tail for the analysis of blood glucose. Immediately after taking this blood sample, glucose (1 g/Kg body weight) was administered subcutaneously to each mouse. 6 mice were given water as a control. Blood samples were then obtained from each mouse at 30 minute intervals for 120 minutes.
Compounds that produced a significant (P<0.05) reduction of blood glucose, compared with control mice given water, at any time interval, were considered active. The area under the blood glucose curve over the 2 hour period after the administration of the glucose was calculated for each compound and compared with the value for control animals.

[2] = 2.5 μmol/Kg oral, 2 h after glucose 1 g/Kg s.c., vs control
[3] = po, 21 h, read-out: Mean Energy Expenditure (0-21 h)
[4] = 12.5 μmol/Kg oral, 2 h after glucose 1 g/Kg s.c., vs control
[5] = po, 3 h, read-out: Mean Energy Expenditure (0-3 h)

CNC(=O)COc1ccc(CC(C)NCC(OC(C)C)c2cccc(Cl)c2)cc1 (stereo not drawn) [Example 28, N-[2-(4-Methylaminocarbonylmethoxyphenyl)-1-methylethyl]-2-isopropoxy-2-(3-chlorophenyl)ethanamine dihydrochloride hemihydrate]
response vs control in vivo at 25.1 mg/kg ([1]; 0-3 h, read-out: Mean Energy Expenditure (0-3 h)): 132%
response vs control in vivo at 25.1 mg/kg ([1]; 0-21 h, read-out: Mean Energy Expenditure (0-21 h)): 113%
inhibition in vivo at 2.5 µmol/kg (blood glucose; [2]): 55%

CNC(=O)COc1ccc(CCNCC(OC)c2cccc(Cl)c2)cc1 (stereo not drawn) [Example 51, N-[2-(4-Methylaminocarbonylmethoxyphenyl)ethyl]-2-methoxy-2-(3-chlorophenyl)ethanamine hydrochloride]
response vs control in vivo at 20.7 mg/kg [1, 3]: 108%
response vs control in vivo at 20.7 mg/kg ([1]; 20.7 mg/kg po, 0-3 h, read-out: Mean Energy Expenditure (0-3 h)): 128%
inhibition in vivo at 12.5 µmol/kg (blood glucose; [4]): 45%

COC(=O)c1ccc(CC(C)NCC(OC)c2cccc(C(F)(F)F)c2)cc1 (stereo not drawn) [Example 45, N-[2-(4-Carbomethoxyphenyl)-1-methylethyl]-2-methoxy-2-(3-trifluoromethylphenyl)ethanamine hydrochloride hemihydrate]
inhibition in vivo at 12.5 µmol/kg (blood glucose; [4]): 38%

CNC(=O)COc1ccc(CC(C)NCC(OC)c2cccc(Br)c2)cc1 (stereo not drawn) [Example 15, N-[2-(4-Methylaminocarbonylmethoxyphenyl)-1-methylethyl]-2-methoxy-2-(3-bromophenyl)ethanamine hydrochloride]
response vs control in vivo at 23.6 mg/kg [1, 5]: 137%
response vs control in vivo at 23.6 mg/kg [1, 3]: 125%
inhibition in vivo at 0.5 µmol/kg (blood glucose; po, 2 h): 41%

COC(=O)COc1cccc(CC(C)NCC(OC)c2cccc(Cl)c2)c1 (stereo not drawn) [Example 8, N-[2-(3-Carbomethoxymethoxyphenyl)-1-methylethyl]-2-methoxy-2-(3-chlorophenyl)ethanamine hydrochloride]
response vs control in vivo at 21.4 mg/kg [1, 5]: 142%
response vs control in vivo at 21.4 mg/kg [1, 3]: 111%
inhibition in vivo at 12.5 µmol/kg (blood glucose; po, 2 h): 49%

COC(=O)Cc1ccc(CC(C)NCC(OC)c2cccc(Cl)c2)cc1 (stereo not drawn) [Example 49, N-[2-(4-Carbomethoxymethylphenyl)-1-methylethyl]-2-methoxy-2-(3-chlorophenyl)ethanamine hydrochloride]
response vs control in vivo at 20.6 mg/kg [1, 5]: 131%
response vs control in vivo at 20.6 mg/kg [1, 3]: 135%
inhibition in vivo at 12.5 µmol/kg (blood glucose; po, 2 h): 47%

CNCCOc1ccc(CC(C)NCC(OC)c2cccc(Br)c2)cc1 (stereo not drawn) [Example 17, N-[2-(4-Methylaminoethoxy)phenyl)-1-methylethyl]-2-methoxy-2-(3-bromophenyl)ethanamine dihydrochloride]
response vs control in vivo at 24.7 mg/kg [1, 5]: 142%
response vs control in vivo at 24.7 mg/kg [1, 3]: 130%
inhibition in vivo at 2.5 µmol/kg (blood glucose; [2]): 25%

COC(=O)COc1ccc(CC(C)NCC(OC)c2ccccc2)cc1 (stereo not drawn) [Example 10, N-[2-(4-Carbomethoxymethoxyphenyl)-1-methylethyl]-2-methoxy-2-phenylethanamine hydrochloride monohydrate]
response vs control in vivo at 20.6 mg/kg [1, 5]: 135%
response vs control in vivo at 20.6 mg/kg [1, 3]: 114%
inhibition in vivo at 1 µmol/kg (blood glucose; po, 2 h): 24%

COC(CNC(C)Cc1ccc(OCCO)cc1)c1ccccc1 (stereo not drawn) [Example 21, N-[2-(4-(2-Hydroxyethoxy)phenyl)-1-methylethyl]-2-methoxy-2-phenylethanamine hydrochloride hemihydrate]
response vs control in vivo at 18.8 mg/kg [1, 3]: 120%
response vs control in vivo at 18.8 mg/kg ([1]; 18.8 mg/kg po, 0-3 h, read-out: Mean Energy Expenditure (0-3 h)): 147%
inhibition in vivo at 1 µmol/kg (blood glucose; 1.0 μmol/Kg oral, 2 h after glucose 1 g/Kg s.c., vs control): 48%

CNCCOc1ccc(CC(C)NCC(OC)c2cccc(C(F)(F)F)c2)cc1 (stereo not drawn) [Example 46, N-[2-(4-(2-Methylaminoethoxy)phenyl)-1-methylethyl]-2-methoxy-2-(3-trifluoromethylphenyl)ethanamine dihydrochloride]
response vs control in vivo at 24.2 mg/kg [1, 5]: 122%
response vs control in vivo at 24.2 mg/kg [1, 3]: 104%
inhibition in vivo at 5 µmol/kg (blood glucose; po, 2 h): 20%

CCCCOC(CNC(C)Cc1ccc(OCC(=O)NC)cc1)c1cccc(Cl)c1 (stereo not drawn) [Example 43, N-[2-(4-Methylaminocarbonylmethoxyphenyl)-1-methylethyl]-2-^n butoxy-2-(3-chlorophenyl)ethanamine hydrochloride hemihydrate]
response vs control in vivo at 24.2 mg/kg ([1]; 24.2 mg/kg po, 0-3 h, read-out: Mean Energy Expenditure (0-3 h)): 144%
response vs control in vivo at 24.2 mg/kg ([1]; 24.2 mg/kg po, 0-21 h, read-out: Mean Energy Expenditure (0-21 h)): 105%
inhibition in vivo at 2.5 µmol/kg (blood glucose; [2]): 31%

CCOC(CNC(C)Cc1ccc(OCC(=O)OC)cc1)c1cccc(Cl)c1 (stereo not drawn) [Example 3, N-[2-(4-Carbomethoxymethoxyphenyl)-1-methylethyl]-2-ethoxy-2-(3-chlorophenyl)ethanamine hydrochloride]
response vs control in vivo at 22.1 mg/kg [1, 5]: 135%
response vs control in vivo at 22.1 mg/kg [1, 3]: 116%
inhibition in vivo at 12.5 µmol/kg (blood glucose; po, 2 h): 49%

CCOC(CNC(C)Cc1ccc(C(=O)NC)cc1)c1cccc(Cl)c1 (stereo not drawn) [Example 34, N-[2-(4-N'-Methylcarboxamidophenyl)-1-methylethyl]-2-ethoxy-2-(3-chlorophenyl)ethanamine hydrochloride]
response vs control in vivo at 20.6 mg/kg [1, 3]: 116%
response vs control in vivo at 20.6 mg/kg ([1]; 20.6 mg/kg po, 0-3 h, read-out: Mean Energy Expenditure (0-3 h)): 148%
inhibition in vivo at 25 µmol/kg (blood glucose; 25 μmol/Kg oral, 2 h after glucose 1 g/Kg s.c., vs control): 34%

COC(=O)COc1ccc(CC(C)NCC(OC)c2cc3ccccc3o2)cc1 (stereo not drawn) [Example 36, N-[2-(4-Carbomethoxymethoxyphenyl)-1-methylethyl]-2-methoxy-2-(2-benzofuranyl)ethanamine hydrochloride]
response vs control in vivo at 21.6 mg/kg [1, 5]: 131%
response vs control in vivo at 21.6 mg/kg [1, 3]: 104%
inhibition in vivo at 2.5 µmol/kg (blood glucose; po, 2 h): 30%

COC(=O)COc1ccc(CC(C)NCC(OCc2ccccc2)c2cccc(Cl)c2)cc1 (stereo not drawn) [Example 50, N-[2-(4-Carbomethoxymethoxyphenyl)-1-methylethyl]-2-benzyloxy-2-(3-chlorophenyl)ethanamine hydrochloride]
response vs control in vivo at 24.6 mg/kg [1, 5]: 142%
response vs control in vivo at 24.6 mg/kg [1, 3]: 116%
inhibition in vivo at 2.5 µmol/kg (blood glucose; po, 2 h): 41%

COC(CNC(C)Cc1ccc(SC(C)C)cc1)c1cccc(Cl)c1 (stereo not drawn) [Example 40, N-[2-(4-Isopropylthiophenyl)-1-methylethyl]-2-methoxy-2-(3-chlorophenyl)ethanamine hydrochloride]
response vs control in vivo at 20.7 mg/kg [1, 5]: 128%
response vs control in vivo at 20.7 mg/kg [1, 3]: 111%
inhibition in vivo at 12.5 µmol/kg (blood glucose; po, 2 h): 31%

COC(=O)/C=C/c1ccc(CC(C)NCC(OC)c2cccc(Cl)c2)cc1 (stereo not drawn) [Example 47, N-[2-(4-{[E]-2-Carbomethoxyethenyl}phenyl)-1-methylethyl]-2-methoxy-2-(3-chlorophenyl)ethanamine hydrochloride]
response vs control in vivo at 21.3 mg/kg [1, 5]: 130%
response vs control in vivo at 21.3 mg/kg [1, 3]: 109%
inhibition in vivo at 12.5 µmol/kg (blood glucose; po, 2 h): 41%

COC(=O)COc1ccc(CC(C)NCC(OC)c2cccc(C(F)(F)F)c2)cc1 (stereo not drawn) [Example 2, N-[2-(4-Carbomethoxymethoxyphenyl)-1-methylethyl]-2-methoxy-2-(3-trifluoromethylphenyl)ethanamine hydrochloride]
response vs control in vivo at 23.1 mg/kg [1, 5]: 124%
response vs control in vivo at 23.1 mg/kg [1, 3]: 113%
inhibition in vivo at 12.5 µmol/kg (blood glucose; po, 2 h): 47%

CNC(=O)COc1ccc(CC(C)NCC(OC)c2cccc(C)c2)cc1 (stereo not drawn) [Example 56, N-[2-(4-Methylaminocarbonylmethoxyphenyl)-1-methylethyl]-2-methoxy-2-(3-methylphenyl)ethanamine hydrochloride]
response vs control in vivo at 20.4 mg/kg [1, 5]: 148%
response vs control in vivo at 20.4 mg/kg [1, 3]: 108%
inhibition in vivo at 12.5 µmol/kg (blood glucose; po, 2 h): 40%

CNC(=O)COc1ccc(CC(C)NCC(OC)c2cccc(F)c2F)cc1 (stereo not drawn) [Example 54, N-[2-(4-Methylaminocarbonylmethoxyphenyl)-1-methylethyl]-2-methoxy-2-(2,3-difluorophenyl)ethanamine dihydrochloride]
inhibition in vivo at 25 µmol/kg (blood glucose; po, 2 h): 40%

COC(=O)COc1ccc(CCC(C)NCC(OC)c2cccc(Cl)c2)cc1 (stereo not drawn) [Example 14, N-[3-(4-Carbomethoxymethoxyphenyl)-1-methylpropyl)-2-methoxy-2-(3-chlorophenyl)ethanamine hydrochloride]
response vs control in vivo at 22.1 mg/kg ([1]; 22.1 mg/kg po, 0-3 h, read-out: Mean Energy Expenditure (0-3 h)): 135%
response vs control in vivo at 22.1 mg/kg ([1]; 22.1 mg/kg po, 0-21 h, read-out: Mean Energy Expenditure (0-21 h)): 103%

COC(=O)c1ccc(CC(C)NCC(OC)c2ccccc2)cc1 (stereo not drawn) [Example 32, N-[2-(4-Carbomethoxyphenyl)-1-methylethyl]-2-methoxy-2-phenylethanamine hydrochloride hemihydrate]
inhibition in vivo at 12.5 µmol/kg (blood glucose; [4]): 19%

COc1ccc(CC(C)NCC(OC)c2cccc(Cl)c2)cc1 (stereo not drawn) [Example 38, N-[2-(4-Methoxyphenyl)-1-methylethyl]-2-methoxy-2-(3-chlorophenyl)ethanamine hydrochloride]
inhibition in vivo at 25 µmol/kg (blood glucose; po, 2 h): 38%
